According to PubChem BioAssay AID1919004 (Molecular Pharmacology Branch, DTP, NCI, 2023):

Tested on: 883617-216-R-J1-PDC complex spheroids, growth, % test/control
Experiment: Anticancer human tumor 883617-216-R-J1-PDC patient-derived bladder carcinoma cell line growth inhibition [AhR]
Settings: for IC50: curve of first compound; for viability, T/C: stronger effect = lower value
Text: Multicellular complex tumor spheroid response to aryl hydrocarbon receptor antagonists in combination with a variety of drugs and investigational agents in selected tumor cell lines
The current study was undertaken to assess response to aryl hydrocarbon receptor antagonists in combination with standard-of-care drugs and investigational agents in solid tumor complex spheroid models. Complex spheroids include a stromal component modeled by human endothelial cells (HUVEC) and fibroblasts modeled by human mesenchymal stem cells (MSCs). The concentration ranges selected for each drug and investigational agent were based upon clinically achievable concentrations if the clinical Cmax of the agent was known.
Compounds. The drugs and investigational agents: BAY 2416964 (NSC825713), GNF351 (NSC835774), CH-223191 (NSC835775), CPI-455 (NSC825282), aza-TdCyd (NSC777586), decitabine (NSC127716), belinostat (NSC758774), entinostat (NSC756642), pevonedistat (NSC761192), tazemetostat (NSC777109), talazoparib (NSC765396), olaparib (NSC753686), selinexor (NSC780203), nedisertib (M3814, NSC802822), bortezomib (NSC756655), venetoclax (NSC766270), doxorubicin (NSC123127), elimusertib (BAY189344, NSC800525), ceralasertib (AZD6738, NSC777638), TAK-243 (NSC785004), alisertib (NSC759677), etoposide (NSC141540), topotecan (NSC609699), eribulin (NSC707389), gemcitabine (NSC613327), carboplatin (NSC241240), cisplatin (NSC119875), and SN-38 (NSC673596) were obtained from the National Cancer Institute (NCI) Developmental Therapeutics Program Chemical Repository (32). The FDA-approved anticancer drug set is available from the Developmental Therapeutics Program at https://dtp.cancer.gov/organization/dscb/obtaining/available plates.htm. […] The stock solutions were prepared in dimethyl sulfoxide (DMSO, Sigma-Aldrich, St. Louis, MO, cat. D2650), except for the platinum compounds which were prepared in saline (Quality Biological, Gaithersburg, MD, cat. 114-055-101), at 800-fold the tested concentration and stored at -70 degrees C prior to their use. All drugs and investigational agents were tested over a range starting from a high concentration at or near the clinical Cmax and decreasing in half-log increments. If the clinical Cmax for an agent had not been determined, the highest concentration tested was 10 microM (Table 1).
Cell Culture. All cells were maintained in an incubator at 37 degrees C and 5% CO2 with 95% humidity. The PDC lines were cultured according to standard operating procedures established by the NCI PDMR (https://pdmr.cancer.gov). Briefly, all PDCs were thawed and cultured in Matrigel-coated flasks prepared with a working solution of 1X Ham's F-12 nutrient mix, without supplementation (Invitrogen, Waltham, MA, cat. 11765054), 100 U/mL penicillin-streptomycin (Invitrogen, cat. 15140122), and 2.5% Matrigel (Corning Inc., Corning, NY, cat. 354248) for the first three passages. All PDCs were cultured in complete DMEM/F-12 media containing advanced DMEM/F-12 (Invitrogen, cat. 12634028), 4.9% defined fetal bovine serum, heat inactivated (HyClone Laboratories Inc., Logan, UT, cat. SH30070.03HI), 389 ng/mL hydrocortisone (Sigma-Aldrich, cat. H4001), 9.7 ng/mL human EGF recombinant protein (Invitrogen, cat. PHG0313), 23.4 microg/mL adenine (Sigma-Aldrich, cat. A2786), 97.3 U/mL penicillin-streptomycin (Invitrogen, cat. 15140122), 1.9 mM L-glutamine (Invitrogen, cat. 25030081), and 9.7 microM Y-27632 dihydrochloride (Tocris Bioscience, Bristol, United Kingdom, cat. 1254). The PDCs were cultured in complete DMEM/F12 media without 10 microM Y-27632 dihydrochloride for at least two passages prior to the screen. The established cell lines NCI-H1341 and […] were cultured in DMEM/F-12, HEPES (Invitrogen, cat. 11330032), 5% defined fetal bovine serum (HyClone Laboratories Inc., cat. SH30070.03), ITS premix universal culture supplement [insulin (5 microg/mL), transferrin (5 microg/mL), and selenious acid (5 ng/mL)] […]

[1] = second compound 0.1 µM, first compound 0.0316 µM
[2] = second compound 0.1 µM, first compound 0.1 µM
[3] = second compound 0.316 µM, first compound 0.0316 µM
[4] = second compound 0.316 µM, first compound 0.1 µM
[5] = second compound 1 µM, first compound 0.0316 µM
[6] = second compound 1 µM, first compound 0.1 µM
[7] = second compound 3.16 µM, first compound 0.0316 µM
[8] = second compound 3.16 µM, first compound 0.1 µM
[9] = second compound 10 µM, first compound 0.0316 µM
[10] = second compound 10 µM, first compound 0.1 µM
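Note: exposure lasted 7 days after dosing on day 3 of spheroid growth.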

CC[C@@]1(O)C(=O)OCc2c1cc1n(c2=O)Cc2cc3c(CN(C)C)c(O)ccc3nc2-1 + CC(CO)NC(=O)c1cc(-c2ccc(Cl)cc2)nn(-c2cnn(C)c2)c1=O
IC50 (second compound 0.1 µM): > 0.1 µM | IC50 (second compound 0.316 µM): > 0.1 µM | IC50 (second compound 1 µM): > 0.1 µM | IC50 (second compound 3.16 µM): > 0.1 µM | IC50 (second compound 10 µM): > 0.1 µM | viability, T/C (second compound 0.1 µM, first compound 0.000316 µM): 66.5% | viability, T/C (second compound 0.1 µM, first compound 0.001 µM): 93.5% | viability, T/C (second compound 0.1 µM, first compound 0.00316 µM): 102% | viability, T/C (second compound 0.1 µM, first compound 0.01 µM): 52.4% | viability, T/C [1]: 82.2% | viability, T/C [2]: 78.4% | viability, T/C (second compound 0.316 µM, first compound 0.000316 µM): 87.9% | viability, T/C (second compound 0.316 µM, first compound 0.001 µM): 100% | viability, T/C (second compound 0.316 µM, first compound 0.00316 µM): 103% | viability, T/C (second compound 0.316 µM, first compound 0.01 µM): 104% | viability, T/C [3]: 117% | viability, T/C [4]: 118% | viability, T/C (second compound 1 µM, first compound 0.000316 µM): 81.3% | viability, T/C (second compound 1 µM, first compound 0.001 µM): 78% | viability, T/C (second compound 1 µM, first compound 0.00316 µM): 107% | viability, T/C (second compound 1 µM, first compound 0.01 µM): 58.3% | viability, T/C [5]: 62% | viability, T/C [6]: 97% | viability, T/C (second compound 3.16 µM, first compound 0.000316 µM): 73.7% | viability, T/C (second compound 3.16 µM, first compound 0.001 µM): 104% | viability, T/C (second compound 3.16 µM, first compound 0.00316 µM): 63.6% | viability, T/C (second compound 3.16 µM, first compound 0.01 µM): 81.9% | viability, T/C [7]: 95.5% | viability, T/C [8]: 70.5% | viability, T/C (second compound 10 µM, first compound 0.000316 µM): 88.1% | viability, T/C (second compound 10 µM, first compound 0.001 µM): 95% | viability, T/C (second compound 10 µM, first compound 0.00316 µM): 80.5% | viability, T/C (second compound 10 µM, first compound 0.01 µM): 66.4% | viability, T/C [9]: 113% | viability, T/C [10]: 112%

Nc1ccn(C2OC(CO)C(O)C2(F)F)c(=O)n1 (stereo not given) + CC(CO)NC(=O)c1cc(-c2ccc(Cl)cc2)nn(-c2cnn(C)c2)c1=O
IC50 (second compound 0.1 µM): > 10 µM | IC50 (second compound 0.316 µM): > 10 µM | IC50 (second compound 1 µM): > 10 µM | IC50 (second compound 3.16 µM): > 10 µM | IC50 (second compound 10 µM): > 10 µM | viability, T/C [1]: 82.9% | viability, T/C [2]: 91.6% | viability, T/C (second compound 0.1 µM, first compound 0.316 µM): 95.4% | viability, T/C (second compound 0.1 µM, first compound 1 µM): 88.3% | viability, T/C (second compound 0.1 µM, first compound 3.16 µM): 58.7% | viability, T/C (second compound 0.1 µM, first compound 10 µM): 85.3% | viability, T/C [3]: 82.2% | viability, T/C [4]: 99% | viability, T/C (second compound 0.316 µM, first compound 0.316 µM): 97.8% | viability, T/C (second compound 0.316 µM, first compound 1 µM): 84.8% | viability, T/C (second compound 0.316 µM, first compound 3.16 µM): 85.8% | viability, T/C (second compound 0.316 µM, first compound 10 µM): 86.3% | viability, T/C [5]: 96.8% | viability, T/C [6]: 76.4% | viability, T/C (second compound 1 µM, first compound 0.316 µM): 113% | viability, T/C (second compound 1 µM, first compound 1 µM): 77.7% | viability, T/C (second compound 1 µM, first compound 3.16 µM): 75.7% | viability, T/C (second compound 1 µM, first compound 10 µM): 72.1% | viability, T/C [7]: 81% | viability, T/C [8]: 91.8% | viability, T/C (second compound 3.16 µM, first compound 0.316 µM): 108% | viability, T/C (second compound 3.16 µM, first compound 1 µM): 52.7% | viability, T/C (second compound 3.16 µM, first compound 3.16 µM): 63.4% | viability, T/C (second compound 3.16 µM, first compound 10 µM): 63.5% | viability, T/C [9]: 63.2% | viability, T/C [10]: 124% | viability, T/C (second compound 10 µM, first compound 0.316 µM): 87% | viability, T/C (second compound 10 µM, first compound 1 µM): 72.7% | viability, T/C (second compound 10 µM, first compound 3.16 µM): 78.2% | viability, T/C (second compound 10 µM, first compound 10 µM): 76.6%
